{
  "source": "patent US20130280764A1",
  "about": "“METHOD OF IMPROVING THE ACTIVITY OF CELLULASE ENZYME MIXTURES IN THE SACCHARIFICATION (LIGNO)CELLULOSIC MATERIAL” (DYADIC INTERNATIONAL (USA) LTD., priority 2012, published 2013)",
  "type_in_all_cases": "biochemical, Myceliophthora thermophila C1",
  "key": {"CBH4": {"tested_on": "CBH4", "assay": "Saccharification of microcrystalline cellulose by purified cellulase with gluconolactone", "conditions": "10 g/L gluconolactone; MCC, 50° C., 72 hrs", "procedure": "(§1) Purified Bgl1, Eg5, Eg6, CBH1, CBH2, and CBH4 from M. thermophila C1 were used to determine the level of inhibition by gluconolactone. For Bgl1, cellobiase activity was assayed by the following procedure: 0.4 ml of 2.5 mM cellobiose solution (in 0.1 M Na-acetate with pH 4.5, 5.0 or 6.0) was incubated during 5 min at 50° C. (with or without gluconolactone), then 0.1 ml of the enzyme (bgl1 from C1) solution was added (the dilution of the enzyme chosen at such a concentration in order to achieve 10% of cellobiose hydrolysis in 15 min, which is 0.072 g/L of glucose released). After 5, 10 and 15 min of incubation at […], 0.1 ml of the reaction mixture was sampled and glucose concentration was determined immediately by the glucose oxidase-peroxidase assay (Megazymes). Gluconolactone (Sigma-Aldrich) was added in the reaction mixture at concentrations between 0-10 g/L (0, 0.04, 0.08, 0.1, 0.2, 0.3, 0.6, 0.8, 1, 2, 4, 5, 8 and 10 g/L).\n(§2) For C1 cellulases Eg2, Eg5, Eg6, CBH1, CBH2, CBH4, the effect of 10 g/L gluconolactone on the saccharification of microcrystalline cellulose (“MCC”) at 50° C. was determined after 72 hrs."}, "CBH1": {"tested_on": "CBH1", "assay": "Saccharification of microcrystalline cellulose by purified cellulase with gluconolactone", "conditions": "10 g/L gluconolactone; MCC, 50° C., 72 hrs", "procedure": "as §1, §2"}, "EG2": {"tested_on": "EG2", "assay": "Saccharification of microcrystalline cellulose by purified cellulase with gluconolactone", "conditions": "10 g/L gluconolactone; MCC, 50° C., 72 hrs", "procedure": "as §1, §2"}, "EG5": {"tested_on": "EG5", "assay": "Saccharification of microcrystalline cellulose by purified cellulase with gluconolactone", "conditions": "10 g/L gluconolactone; MCC, 50° C., 72 hrs", "procedure": "as §1, §2"}, "CBH2": {"tested_on": "CBH2", "assay": "Saccharification of microcrystalline cellulose by purified cellulase with gluconolactone", "conditions": "10 g/L gluconolactone; MCC, 50° C., 72 hrs", "procedure": "as §1, §2"}, "M. thermophila C1 BGl1": {"tested_on": "M. thermophila C1 BGl1", "assay": "Cellobiase activity of Bgl1 with or without gluconolactone", "conditions": "gluconolactone above 0.1 g/L; pH 4.5, 5.0 and 6.0", "procedure": "as §1, §2"}},
  "data": [
    {"smiles": "O=C1O[C@H](CO)[C@@H](O)[C@H](O)[C@H]1O", "note": "[gluconolactone]", "values": [
      {"measurement": "Remaining activity", "setting": "CBH4", "value": 33, "unit": "%"},
      {"measurement": "Remaining activity", "setting": "CBH1", "value": 14, "unit": "%"},
      {"measurement": "Remaining activity", "setting": "EG2", "value": 28, "unit": "%"},
      {"measurement": "Remaining activity", "setting": "EG5", "value": 65, "unit": "%"},
      {"measurement": "Remaining activity", "setting": "CBH2", "value": 13, "unit": "%"},
      {"measurement": "inhibition of cellobiase activity", "setting": "M. thermophila C1 BGl1", "value": "completely inhibited"}
    ]}
  ]
}
